Experimental data reported in patent US20040142952A1, “Triazoloquinazoline and pyrazolotriazolopyrimidine derivatives, medicinal compositions, adenosine a3 receptor affinity agents, ocular tension lowering agents, preparations for preventing and treating glaucoma and method of lowering ocular tension” (priority 2001, published 2004).

| Structure (SMILES) | melting point |
| --- | --- |
| COC(=O)CCCc1nc2nncc-2c2nc(-c3ccc(OC)cc3)[nH]n12 [Example 90, methyl 4-[2-(4-methoxyphenyl)pyrazolo[4,3-e]-1,2,4-triazolo[1,5-c]pyrimidin-5-yl]butyrate] | 187.5 to 188.5 °C |
| COC(=O)CCCc1nc2nncc-2c2nc(-c3ccc(Cl)cc3)[nH]n12 [Example 91, methyl 4-[2-(4-chlorophenyl)pyrazolo[4,3-e]-1,2,4-triazolo[1,5-c]pyrimidin-5-yl]butyrate] | 194.5 to 196.5 °C |
| COC(=O)CCCc1nc2nncc-2c2nc(-c3ccc(C)cc3)[nH]n12 [Example 92, methyl 4-[2-(4-methylphenyl)pyrazolo[4,3-e]-1,2,4-triazolo[1,5-c]pyrimidin-5-yl]butyrate] | 196.5 to 197 °C |
| CCCCCc1nc2ccccc2c2nc(-c3ccccc3)nn12 [Example 93, 5-n-pentyl-2-phenyl-1,2,4-triazolo[1,5-c]quinazoline] | 118 to 118.5 °C |
| CCCCCCc1nc2ccccc2c2nc(-c3ccccc3)nn12 [Example 94, 5-n-hexyl-2-phenyl-1,2,4-triazolo[1,5-c]quinazoline] | 92 to 93 °C |
| CCCCCc1nc2ccccc2c2nc(-c3ccc(F)cc3)nn12 [Example 95, 2-(4-fluorophenyl)-5-n-pentyl-1,2,4-triazolo[1,5-c]quinazoline] | 133.5 to 134 °C |
| COC(=O)CCCc1nc2ccccc2c2nc(-c3ccccc3)nn12 [Example 96, methyl 4-(2-phenyl-1,2,4-triazolo[1,5-c]quinazolin-5-yl)butyrate] | 118.5 to 119.5 °C |
| COC(=O)CCCc1nc2ccccc2c2nc(-c3ccc(Br)cc3)nn12 [Example 97, methyl 4-[2-(4-bromophenyl)-1,2,4-triazolo[1,5-c]quinazolin-5-yl]butyrate] | 125 to 126 °C |
| COC(=O)CCCc1nc2ccccc2c2nc(-c3ccc(F)cc3)nn12 [Example 98, methyl 4-[2-(4-fluorophenyl)-1,2,4-triazolo[1,5-c]quinazolin-5-yl]butyrate] | 167 to 168 °C |
| COC(=O)CCCc1nc2ccccc2c2nc(-c3ccc(Cl)cc3)nn12 [Example 99, methyl 4-[2-(4-chlorophenyl)-1,2,4-triazolo[1,5-c]quinazolin-5-yl]butyrate] | 128 to 129 °C |
| COC(=O)CCCc1nc2ccccc2c2nc(-c3ccc(C)cc3)nn12 [Example 100, methyl 4-[2-(4-methylphenyl)-1,2,4-triazolo[1,5-c]quinazolin-5-yl]butyrate] | 120.5 to 121.5 °C |
| CCCCCc1nc2ccccc2c2nc(-c3ccc(C)cc3)nn12 [Example 101, 2-(4-methylphenyl)-5-n-pentyl-1,2,4-triazolo[1,5-c]quinazoline] | 129.5 to 131 °C |
| CCCCCc1nc2ccccc2c2nc(-c3ccc(Br)cc3)nn12 [Example 102, 2-(4-bromophenyl)-5-n-pentyl-1,2,4-triazolo[1,5-c]quinazoline] | 133 to 134 °C |
| CCCCCc1nc2ccccc2c2nc(-c3ccc(Cl)cc3)nn12 [Example 103, 2-(4-chlorophenyl)-5-n-pentyl-1,2,4-triazolo[1,5-c]quinazoline] | 118 to 119.5 °C |
| COC(=O)CCCc1nc2ccc(Cl)cc2c2nc(-c3ccc(Cl)cc3)nn12 [Example 104, methyl 4-[9-chloro-2-(4-chlorophenyl)-1,2,4-triazolo[1,5-c]quinazolin-5-yl]butyrate] | 145 to 146.5 °C |
| CCCCCc1nc2ccccc2c2nc(-c3ccc(OC)cc3)nn12 [Example 105, 2-(4-methoxyphenyl)-5-n-pentyl-1,2,4-triazolo[1,5-c]quinazoline] | 123 to 125 °C |
| CCCCCc1nc2ccccc2c2nc(-c3ccc(OCC)cc3)nn12 [Example 106, 2-(4-ethoxyphenyl)-5-n-pentyl-1,2,4-triazolo[1,5-c]quinazoline] | 116 to 117 °C |
| CCCCc1nc2c(cnn2Cc2ccccc2)c2nc(-c3ccccc3)nn12 [Example 116, 7-benzyl-5-n-butyl-2-phenylpyrazolo[4,3-e]-1,2,4-triazolo[1,5-c]pyrimidine] | 108 to 109 °C |
| CCCCc1nc2c(cnn2C)c2nc(-c3ccc(Cl)cc3)nn12 [Example 118, 2-(4-chlorophenyl)-5-n-butyl-7-methylpyrazolo[4,3-e]-1,2,4-triazolo[1,5-c]pyrimidine] | 147.5 to 148.5 °C |
| CCCCc1nc2nn(C)cc2c2nc(-c3ccc(Cl)cc3)nn12 [Example 119, 2-(4-chlorophenyl)-5-n-butyl-8-methylpyrazolo[4,3-e]-1,2,4-triazolo[1,5-c]pyrimidine] | 203.5 to 205 °C |
| CCCCc1nc2c(cnn2C)c2nc(-c3ccc(C)cc3)nn12 [Example 120, 5-n-butyl-7-methyl-2-(4-methylphenyl)pyrazolo[4,3-e]-1,2,4-triazolo[1,5-c]pyrimidine] | 156 to 157 °C |
| CCCCc1nc2c(cnn2CCC)c2nc(-c3ccc(C)cc3)nn12 [Example 122, 5-n-butyl-2-(4-methylphenyl)-7-n-propylpyrazolo[4,3-e]-1,2,4-triazolo[1,5-c]pyrimidine] | 113 to 113.5 °C |
| CCCCc1nc2c(cnn2CCC)c2nc(-c3ccc(F)cc3)nn12 [Example 124, 5-n-butyl-2-(4-fluorophenyl)-7-n-propylpyrazolo[4,3-e]-1,2,4-triazolo[1,5-c]pyrimidine] | 105.5 to 106 °C |
| CCCCc1nc2c(cnn2CCC)c2nc(-c3ccc(Cl)cc3)nn12 [Example 126, 5-n-butyl-2-(4-chlorophenyl)-7-n-propylpyrazolo[4,3-e]-1,2,4-triazolo[1,5-c]pyrimidine] | 131.5 to 132 °C |
| CCCCc1nc2c(cnn2CC(=O)OCC)c2nc(-c3ccc(F)cc3)nn12 [Example 130, ethyl 2-[5-n-butyl-2-(4-fluorophenyl)pyrazolo[4,3-e]-1,2,4-triazolo[1,5-c]pyrimidin-7-yl]acetate] | 139.5 to 140.5 °C |
| CCCCc1nc2nn(CC(=O)OCC)cc2c2nc(-c3ccc(F)cc3)nn12 [Example 131, ethyl 2-[5-n-butyl-2-(4-fluorophenyl)pyrazolo[4,3-e]-1,2,4-triazolo[1,5-c]pyrimidin-8-yl]acetate] | 164 to 165 °C |
| CCCCc1nc2c(cnn2CCO)c2nc(-c3ccc(F)cc3)nn12 [Example 134, 5-n-butyl-2-(4-fluorophenyl)-7-(2-hydroxyethyl)pyrazolo[4,3-e]-1,2,4-triazolo[1,5-c]pyrimidine] | 150.5 to 151.5 °C |

Results, then the molecule that gave them:

| melting point | Structure (SMILES) |
| --- | --- |
| 172 to 173 °C | CCCCc1nc2c(cnn2C)c2nc(-c3ccccc3)nn12 [Example 110, 5-n-butyl-7-methyl-2-phenylpyrazolo[4,3-e]-1,2,4-triazolo[1,5-c]pyrimidine] |
| 184 to 185 °C | CCCCc1nc2nn(C)cc2c2nc(-c3ccccc3)nn12 [Example 111, 5-n-butyl-8-methyl-2-phenylpyrazolo[4,3-e]-1,2,4-triazolo[1,5-c]pyrimidine] |
| 100.5 to 101.5 °C | CCCCc1nc2c(cnn2CCC)c2nc(-c3ccccc3)nn12 [Example 112, 5-n-butyl-2-phenyl-7-n-propylpyrazolo[4,3-e]-1,2,4-triazolo[1,5-c]pyrimidine] |
| 107 to 108 °C | CCCCc1nc2nn(CCC)cc2c2nc(-c3ccccc3)nn12 [Example 113, 5-n-butyl-2-phenyl-8-n-propylpyrazolo[4,3-e]-1,2,4-triazolo[1,5-c]pyrimidine] |
| 146 to 147 °C | CCCCc1nc2c(cnn2CC)c2nc(-c3ccccc3)nn12 [Example 114, 5-n-butyl-7-ethyl-2-phenylpyrazolo[4,3-e]-1,2,4-triazolo[1,5-c]pyrimidine] |
| 122.5 to 123 °C | CCCCc1nc2nn(CC)cc2c2nc(-c3ccccc3)nn12 [Example 115, 5-n-butyl-8-ethyl-2-phenylpyrazolo[4,3-e]-1,2,4-triazolo[1,5-c]pyrimidine] |
| 159 to 160 °C | CCCCc1nc2nn(Cc3ccccc3)cc2c2nc(-c3ccccc3)nn12 [Example 117, 8-benzyl-5-n-butyl-2-phenylpyrazolo[4,3-e]-1,2,4-triazolo[1,5-c]pyrimidine] |
| 180 to 181 °C | CCCCc1nc2nn(C)cc2c2nc(-c3ccc(C)cc3)nn12 [Example 121, 5-n-butyl-8-methyl-2-(4-methylphenyl)pyrazolo[4,3-e]-1,2,4-triazolo[1,5-c]pyrimidine] |
| 101.5 to 103.5 °C | CCCCc1nc2nn(CCC)cc2c2nc(-c3ccc(C)cc3)nn12 [Example 123, 5-n-butyl-2-(4-methylphenyl)-8-n-propylpyrazolo[4,3-e]-1,2,4-triazolo[1,5-c]pyrimidine] |
| 106.5 to 107.5 °C | CCCCc1nc2nn(CCC)cc2c2nc(-c3ccc(F)cc3)nn12 [Example 125, 5-n-butyl-2-(4-fluorophenyl)-8-n-propylpyrazolo[4,3-e]-1,2,4-triazolo[1,5-c]pyrimidine] |
| 137 to 138 °C | CCCCc1nc2nn(CCC)cc2c2nc(-c3ccc(Cl)cc3)nn12 [Example 127, 5-n-butyl-2-(4-chlorophenyl)-8-n-propylpyrazolo[4,3-e]-1,2,4-triazolo[1,5-c]pyrimidine] |
| 131.5 to 132.5 °C | CCCCc1nc2c(cnn2CC(=O)OCC)c2nc(-c3ccccc3)nn12 [Example 128, ethyl 2-(5-n-butyl-2-phenylpyrazolo[4,3-e]-1,2,4-triazolo[1,5-c]pyrimidin-7-yl)acetate] |
| 136 to 137 °C | CCCCc1nc2nn(CC(=O)OCC)cc2c2nc(-c3ccccc3)nn12 [Example 129, ethyl 2-(5-n-butyl-2-phenylpyrazolo[4,3-e]-1,2,4-triazolo[1,5-c]pyrimidin-8-yl)acetate] |
| 132 to 133 °C | CCCCc1nc2c(cnn2CCO)c2nc(-c3ccccc3)nn12 [Example 132, 5-n-butyl-7-(2-hydroxyethyl)-2-phenylpyrazolo[4,3-e]-1,2,4-triazolo[1,5-c]pyrimidine] |
| 160.5 to 162 °C | CCCCc1nc2nn(CCO)cc2c2nc(-c3ccccc3)nn12 [Example 133, 5-n-butyl-8-(2-hydroxyethyl)-2-phenylpyrazolo[4,3-e]-1,2,4-triazolo[1,5-c]pyrimidine] |
